24 compounds from patent US12023319B2, “Carboxylic acid aromatic amides” (priority 2016, dated 2024) can be followed below.

A word on the IC50: it is the point on the concentration scale where inhibition reaches its midpoint.

Assay [1] deals with T1, native human Bradykinin B1 receptor (Homo sapiens, UniProt P46663).
T1 construct: which express native human Bradykinin B1 receptor after induction with human IL-1beta; Coriell Institute; host or cells: IMR-90 human foetal lung fibroblasts, induced with human IL-1beta
T1 sequence (P46663 1-353): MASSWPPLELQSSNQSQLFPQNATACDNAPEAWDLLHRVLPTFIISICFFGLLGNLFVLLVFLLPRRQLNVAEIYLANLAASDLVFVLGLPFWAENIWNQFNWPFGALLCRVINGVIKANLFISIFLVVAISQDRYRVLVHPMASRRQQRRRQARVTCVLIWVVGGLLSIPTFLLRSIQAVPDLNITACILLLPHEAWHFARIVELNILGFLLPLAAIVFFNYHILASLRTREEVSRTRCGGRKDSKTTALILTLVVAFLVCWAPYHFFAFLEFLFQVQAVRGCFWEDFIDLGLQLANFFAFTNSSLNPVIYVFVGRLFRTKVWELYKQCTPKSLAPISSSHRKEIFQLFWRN
In words: Calcium flux assay (FLIPR) with IMR-90 human fibroblasts expressing Bradykinin B1 receptor after IL-1beta induction (hB1 IMR-90). The class given is cell-based. The conditions noted are these: IMR-90 human fibroblasts after IL-1beta induction, read-out: hB1 IMR90 IC50. On the procedure:
Calcium Flux Assay (FLIPR) with Human Fibroblasts Expressing Bradykinin B1 Receptor (hB1 IMR-90)
The Calcium flux Assay was carried out utilising IMR-90 human foetal lung fibroblasts (American Type Culture Collection, Rockville, MD; and Coriell Institute, Camden, New Jersey), which express native human Bradykinin B1 receptor after induction with human IL-1beta.
The fibroblasts were cultured in complete growth media comprised of Dulbecco's modified Eagle's medium (DMEM; Sigma) containing 10% foetal bovine serum, 4 mM L-glutamine, and 1% nonessential amino acids. The cells were maintained in a humidified atmosphere with 5% CO2 at 37° C. and were sub-cultured at a ratio of 1:3, every other day.
For the assay, IMR-90 fibroblasts were harvested using TrypLE Express (GIBCO/Invitrogen) and seeded into 384-well plates (Corning Cellbinding Surface, Cat. 3683) at a density of 15000 cells/well. The following day, cells were treated with 0.35 ng/mL human IL-1beta in 10% FBS/MEM for 3 h to up-regulate Bradykinin B1 receptor. Induced cells were loaded with fluorescent calcium indicator by incubation with 2.5 μM Fluo-4/AM (Invitrogen) at 37° C., 5% CO2 for 2 h in the presence of 2.5 mM probenecid in 1% FBS/MEM. […] Compound examples were assayed at 8 concentrations in triplicate. […] A peptide antagonist Lys-(Des-Arg-Leu)-Bradykinin (Bachem, Brackley) at 20 µM was used to determine the full inhibition as control. IC50 values were determined by the same way described for the FLI PR assay with recombinant cells.
Background: Calcium flux is commonly read through the fluorescence of an indicator in the cells.

Assay [2] deals with T2, human Bradykinin B1 receptor (Homo sapiens, UniProt P46663).
T2 construct: host or cells: CHO-K1
T2 sequence (P46663 1-353): T1 sequence (P46663 1-353)
In words: Calcium flux assay (FLIPR), CHO-K1 cells expressing human Bradykinin B1 receptor, absence of 0.1% BSA (hB1 free IC50). The assay is classed as cell-based. Conditions: absence of 0.1% BSA in assay buffer. The essentials:
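Peak FLIPR fluorescence (538 nm) after B1 agonist peptide addition gave IC50s, scaled between DMSO and full block by 20 µM Lys-(Des-Arg-Leu)-Bradykinin. Compounds were preincubated 30 min at 28° C with calcium-dye-loaded CHO-K1 cells expressing human B1, at 8 concentrations in triplicate, 1% DMSO final.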

Regarding `O=C(O)c1cc(NC(=O)C2(c3ccc(C(F)(F)F)cc3F)CC2)ccc1-c1ccc(C(F)F)nc1` [Example 4, 2-[6-(Difluoromethyl)pyridin-3-yl]-5-[({1-[2-fluoro-4-(trifluoromethyl)phenyl]cyclopropyl}carbonyl)amino]benzoic acid], the results for the IC50 in assay [1] and in assay [2] were 3400 nM and 110 nM, respectively.
The like results for `O=C(O)c1cc(NC(=O)C2(c3ccc(OC(F)(F)F)cc3F)CC2)ccc1-c1ccc(C(F)(F)F)nc1` [Example 7, 5-[({1-[2-Fluoro-4-(trifluoromethoxy)phenyl]cyclopropyl}carbonyl)amino]-2-[6-(trifluoromethyl)pyridin-3-yl]benzoic acid] were, in that order, 1100 nM and 200 nM.
For `CCOc1ccc(-c2ccc(NC(=O)C3(c4cccc(Cl)c4)CC3)cc2C(=O)O)cn1` [Example 9, 5-({[1-(3-Chlorophenyl)cyclopropyl]carbonyl}amino)-2-(6-ethoxypyridin-3-yl)benzoic acid] the same measures were 320 nM and 140 nM.
For `CCOc1ccc(-c2ccc(NC(=O)C3(c4ccc(C(F)(F)F)cc4F)CC3)cc2C(=O)O)cn1` [Example 10, 2-(6-Ethoxypyridin-3-yl)-5-[({1-[2-fluoro-4-(trifluoromethyl)phenyl]cyclopropyl}carbonyl)amino]benzoic acid] the same measures were 33 nM and 18 nM.
For the compound `Cc1ccc(C2(C(=O)Nc3ccc(-c4cnc(C5CCC5)s4)c(C(=O)O)c3)CC2)c(F)c1` [Example 147, 2-(2-Cyclobutyl-1,3-thiazol-5-yl)-5-({[1-(2-fluoro-4-methylphenyl)cyclopropyl]carbonyl}amino)benzoic acid], the IC50 in assay [2] is 13 nM.
As to `O=C(O)c1cc(NC(=O)C2(c3ccc(C(F)(F)F)cc3F)CC2)ccc1-c1cnc(C2CCC2)s1` [Example 148, 2-(2-Cyclobutyl-1,3-thiazol-5-yl)-5-[({1-[2-fluoro-4-(trifluoromethyl)phenyl]cyclopropyl}carbonyl)amino]benzoic acid], in assay [2], the IC50 came out at 3.4 nM.
On the same count and under the same terms, with `O=C(O)c1cc(NC(=O)C2(c3ccc(OC(F)(F)F)cc3F)CC2)ccc1-c1cnc(C2CCC2)s1` [Example 149, 2-(2-Cyclobutyl-1,3-thiazol-5-yl)-5-[({1-[2-fluoro-4-(trifluoromethoxy)phenyl]cyclopropyl}carbonyl)amino]benzoic acid] the figure was 3.2 nM; with `Cc1ccc(C2(C(=O)Nc3ccc(-c4cnn(C5CC5)c4)c(C(=O)O)c3)CC2)c(F)c1` [Example 150, 2-(1-Cyclopropyl-1H-pyrazol-4-yl)-5-({[1-(2-fluoro-4-methylphenyl)cyclopropyl]carbonyl}amino)benzoic acid], 500 nM; with `CC1(Cn2cc(-c3ccc(NC(=O)C4(c5ccc(C(F)(F)F)cc5F)CC4)cc3C(=O)O)cn2)CC1` [Example 151, 5-[({1-[2-Fluoro-4-(trifluoromethyl)phenyl]cyclopropyl}carbonyl)amino]-2-{1-[(1-methylcyclopropyl)methyl]-1H-pyrazol-4-yl}benzoic acid], 22 nM.
In the case of `CC1(Cn2cc(-c3ccc(NC(=O)C4(c5ccc(OC(F)(F)F)cc5F)CC4)cc3C(=O)O)cn2)CC1` [Example 152, 5-[({1-[2-Fluoro-4-(trifluoromethoxy)phenyl]cyclopropyl}carbonyl)amino]-2-{1-[(1-methylcyclopropyl)methyl]-1H-pyrazol-4-yl}benzoic acid], the IC50 in assay [2] stood at 8.1 nM.
The same measure, in the same setting: for `CC(C1CC1)n1cc(-c2ccc(NC(=O)C3(c4ccc(C(F)(F)F)cc4F)CC3)cc2C(=O)O)cn1` (stereo not shown) [Example 153, 2-[1-(1-Cyclopropylethyl)-1H-pyrazol-4-yl]-5-[({1-[2-fluoro-4-(trifluoromethyl)phenyl]cyclopropyl}carbonyl)amino]benzoic acid] the value was 8.7 nM; for `COCCn1cc(-c2ccc(NC(=O)C3(c4ccc(C(F)(F)F)cc4F)CC3)cc2C(=O)O)cn1` [Example 155, 5-[({1-[2-Fluoro-4-(trifluoromethyl)phenyl]cyclopropyl}carbonyl)amino]-2-[1-(2-methoxyethyl)-1H-pyrazol-4-yl]benzoic acid], 270 nM.
Same read-out and setting: for `CCc1ccc(-c2ccc(NC(=O)C3(c4ccc(C(F)(F)F)cc4F)CC3)cc2C(=O)O)cn1` [Example 160, 2-(6-Ethylpyridin-3-yl)-5-[({1-[2-fluoro-4-(trifluoromethyl)phenyl]cyclopropyl}carbonyl)amino]benzoic acid] the value was 21 nM; for `CCc1ccc(-c2ccc(NC(=O)C3(c4ccc(OC(F)(F)F)cc4F)CC3)cc2C(=O)O)cn1` [Example 161, 2-(6-Ethylpyridin-3-yl)-5-[({1-[2-fluoro-4-(trifluoromethoxy)phenyl]cyclopropyl}carbonyl)amino]benzoic acid], 15 nM; for `CCc1ccc(-c2c(F)cc(NC(=O)C3(c4ccc(C(F)(F)F)cc4F)CC3)cc2C(=O)O)cn1` [Example 162, 2-(6-Ethylpyridin-3-yl)-3-fluoro-5-[({1-[2-fluoro-4-(trifluoromethyl)phenyl]cyclopropyl}carbonyl)amino]benzoic acid], 14 nM.
Same read-out and setting: for `Cn1ncc2ccc(-c3ccc(NC(=O)C4(c5ccc(OC(F)(F)F)cc5F)CC4)cc3C(=O)O)cc21` [Example 164, 5-[({1-[2-Fluoro-4-(trifluoromethoxy)phenyl]cyclopropyl}carbonyl)amino]-2-(1-methyl-1H-indazol-6-yl)benzoic acid] the value was 120 nM; for `Cn1ncc2ccc(-c3c(F)cc(NC(=O)C4(c5ccc(C(F)(F)F)cc5F)CC4)cc3C(=O)O)cc21` [Example 165, 3-Fluoro-5-[({1-[2-fluoro-4-(trifluoromethyl)phenyl]cyclopropyl}carbonyl)amino]-2-(1-methyl-1H-indazol-6-yl)benzoic acid], 63 nM.
`Cn1ncc2ccc(-c3c(F)cc(NC(=O)C4(c5ccc(OC(F)(F)F)cc5F)CC4)cc3C(=O)O)cc21` [Example 166, 3-Fluoro-5-[({1-[2-fluoro-4-(trifluoromethoxy)phenyl]cyclopropyl}carbonyl)amino]-2-(1-methyl-1H-indazol-6-yl)benzoic acid]: the IC50 in assay [2] was determined as 24 nM.
Still for that read-out and setting: for `O=C(O)c1cc(NC(=O)C2(c3ccc(C(F)(F)F)cc3F)CC2)ccc1-c1cnc(C2CCCC2)s1` [Example 167, 2-(2-Cyclopentyl-1,3-thiazol-5-yl)-5-[({1-[2-fluoro-4-(trifluoromethyl)phenyl]cyclopropyl}carbonyl)amino]benzoic acid] the value was 3.4 nM; for `O=C(O)c1cc(NC(=O)C2(c3ccc(C(F)(F)F)cc3F)CC2)cc(F)c1-c1cnc(C2CCC2)s1` [Example 168, 2-(2-Cyclobutyl-1,3-thiazol-5-yl)-3-fluoro-5-[({1-[2-fluoro-4-(trifluoromethyl)phenyl]cyclopropyl}carbonyl)amino]benzoic acid], 3.3 nM; for `Cc1cnc(-c2ccc(NC(=O)C3(c4ccc(C(F)(F)F)cc4F)CC3)cc2C(=O)O)cn1` [Example 169, 5-[({1-[2-Fluoro-4-(trifluoromethyl)phenyl]cyclopropyl}carbonyl)amino]-2-(5-methylpyrazin-2-yl)benzoic acid], 2100 nM.
Still for that read-out and setting: with `O=C(O)c1cc(NC(=O)C2(c3ccc(OC(F)(F)F)cc3F)CC2)ccc1-c1cn(C2CCC2)cn1` [Example 170, 2-(1-Cyclobutyl-1H-imidazol-4-yl)-5-[({1-[2-fluoro-4-(trifluoromethoxy)phenyl]cyclopropyl}carbonyl)amino]benzoic acid] the figure was 2100 nM; with `COc1ccc(C2(C(=O)Nc3ccc(-c4cnn(C5CCC5)c4)c(C(=O)O)c3)CC2)c(F)c1` [Example 171, 2-(1-Cyclobutyl-1H-pyrazol-4-yl)-5-({[1-(2-fluoro-4-methoxyphenyl)cyclopropyl]carbonyl}amino)benzoic acid], 390 nM.
As to `O=C(O)c1cc(NC(=O)C2(c3ccc(C(F)(F)F)cc3F)CC2)cc(F)c1-c1cnn(CC(F)(F)F)c1` [Example 172, 3-Fluoro-5-[({1-[2-fluoro-4-(trifluoromethyl)phenyl]cyclopropyl}carbonyl)amino]-2-[1-(2,2,2-trifluoroethyl)-1H-pyrazol-4-yl]benzoic acid], in assay [2], the IC50 stood at 30 nM.
